Here are results for 1 compound from EPA's ToxValDB 9.5 (doi:10.2903/j.efsa.2010.1828).

Series [1] deals with Apis mellifera. The settings on record: acute; duration: 48 hours; oral; unspecified; mortality.
Series [2] relates to Bibionidae. The settings on record: chronic/long-term; duration: 26 days; other.
Series [3] has as its system Bird. The settings on record: short-term; oral; feed; mortality.
Series [4] deals with Colinus virginianus. To be noted: acute; oral; mortality.
In series [5] the test system is Coturnix japonica. The settings on record: reproduction developmental; duration: 8 weeks; reproduction.
The test system of series [6] is Daphnia magna. The settings on record: chronic/long-term; duration: 21 days; growth.
Series [7] has as its system Folsomia candida. To be noted: chronic/long-term; duration: 28 days.
Series [8] deals with Macromiidae. The settings on record: acute; duration: 72 hours; growth.
Series [9] has as its system Oncorhynchus mykiss.
In series [10] the test system is Rattus norvegicus.
Series [11] has as its system Tagia sp. The settings on record: acute; duration: 14 days; mortality.
Series [12] relates to Aphidius rhopalosiphi. Briefly: LR50; higher = less toxic. The settings on record: not reported; mortality.

In general, NOAEL refers to the highest tested level that showed no adverse finding. As for `O=C(Nc1ccccc1)N(Cc1ccc(Cl)cc1)C1CCCC1` [Pencycuron], the LD50 in [1] is greater than 98.5 µg/piece; in series [4], greater than 2000 mg/kg; in [10] (acute, oral, mortality), greater than 5000 mg/kg. Further, the NOEC is no less than 0.3 mg/L in [2]; 0.0496 mg/L in [6]; 60 mg/kg in series [7]; greater than 0.3 mg/L in series [8]; 0.0832 mg/L in [9] (chronic/long-term, duration: 94 days, growth). Besides, the LC50 is greater than 1750 mg/kg-day in series [3]; greater than 0.3 µg/mL in series [9] (acute, duration: 96 hours, mortality); greater than 10000 mg/kg in series [11]. This compound registered an NOEL in series [5] of no less than 122 mg/kg-day. The NOAEL in series [10] (chronic, duration: 2 years) was found to be 18 mg/kg-day; in series [10] (reproduction developmental, body weight), 32 mg/kg-day. The same compound returned an LR50 in [12] of 685 g/ha.
